Results taken from PMC10385824, “Antiproliferative and Tubulin-Destabilising Effects of 3-(Prop-1-en-2-yl)azetidin-2-Ones and Related Compounds in MCF-7 and MDA-MB-231 Breast Cancer Cells” (Pharmaceuticals, 2023).

Assays:
SNB-75 = test: NCI-60 SRB screen, CNS cancer; type: cell-based, human; details: Homo sapiens; SNB-75; five dose 0.01–100 µM, 48 h; read-out: GI50
SK-MEL-5 = test: NCI-60 SRB screen, melanoma; type: cell-based, human; details: Homo sapiens; SK-MEL-5; five dose 0.01–100 µM, 48 h; read-out: GI50
HOP-92 = test: NCI-60 SRB screen, non-small cell lung cancer; type: cell-based, human; details: Homo sapiens; HOP-92; five dose 0.01–100 µM, 48 h; read-out: GI50
CAKI-1 = test: NCI-60 SRB screen, renal cancer; type: cell-based, human; details: Homo sapiens; CAKI-1; five dose 0.01–100 µM, 48 h; read-out: GI50
MDA-MB-468 = test: NCI-60 SRB screen, breast cancer; type: cell-based, human; details: Homo sapiens; MDA-MB-468; five dose 0.01–100 µM, 48 h; read-out: GI50
HCT-116 = test: NCI-60 SRB screen, colon cancer; type: cell-based, human; details: Homo sapiens; HCT-116; five dose 0.01–100 µM, 48 h; read-out: GI50
786-0 = test: NCI-60 SRB screen, renal cancer; type: cell-based, human; details: Homo sapiens; 786-0; five dose 0.01–100 µM, 48 h; read-out: GI50
OVCAR-3 = test: NCI-60 SRB screen, ovarian cancer; type: cell-based, human; details: Homo sapiens; OVCAR-3; five dose 0.01–100 µM, 48 h; read-out: GI50
HOP-62 = test: NCI-60 SRB screen, non-small cell lung cancer; type: cell-based, human; details: Homo sapiens; HOP-62; five dose 0.01–100 µM, 48 h; read-out: GI50
SW-620 = test: NCI-60 SRB screen, colon cancer; type: cell-based, human; details: Homo sapiens; SW-620; five dose 0.01–100 µM, 48 h; read-out: GI50
M14 = test: NCI-60 SRB screen, melanoma; type: cell-based, human; details: Homo sapiens; M14; five dose 0.01–100 µM, 48 h; read-out: GI50
NCI-H23 = test: NCI-60 SRB screen, non-small cell lung cancer; type: cell-based, human; details: Homo sapiens; NCI-H23; five dose 0.01–100 µM, 48 h; read-out: GI50
OVCAR-4 = test: NCI-60 SRB screen, ovarian cancer; type: cell-based, human; details: Homo sapiens; OVCAR-4; five dose 0.01–100 µM, 48 h; read-out: GI50
UO-31 = test: NCI-60 SRB screen, renal cancer; type: cell-based, human; details: Homo sapiens; UO-31; five dose 0.01–100 µM, 48 h; read-out: GI50
EKVX = test: NCI-60 SRB screen, non-small cell lung cancer; type: cell-based, human; details: Homo sapiens, five dose 0.01–100 µM, 48 h, read-out: GI50
UACC-62 = test: NCI-60 SRB screen, melanoma; type: cell-based, human; details: Homo sapiens; UACC-62; five dose 0.01–100 µM, 48 h; read-out: GI50
RXF 393 = test: NCI-60 SRB screen, renal cancer; type: cell-based, human; details: Homo sapiens; RXF 393; five dose 0.01–100 µM, 48 h; read-out: GI50
COLO 205 = test: NCI-60 SRB screen, colon cancer; type: cell-based, human; details: Homo sapiens; COLO 205; five dose 0.01–100 µM, 48 h; read-out: GI50
SK-MEL-2 = test: NCI-60 SRB screen, melanoma; type: cell-based, human; details: Homo sapiens; SK-MEL-2; five dose 0.01–100 µM, 48 h; read-out: GI50
HCT-15 = test: NCI-60 SRB screen, colon cancer; type: cell-based, human; details: Homo sapiens; HCT-15; five dose 0.01–100 µM, 48 h; read-out: GI50
MCF-7 = test: cells; details: Homo sapiens, MCF7, 48 h
LOX IMVI = test: NCI-60 SRB screen, melanoma; type: cell-based, human; details: Homo sapiens, five dose 0.01–100 µM, 48 h, read-out: GI50
HT29 = test: NCI-60 SRB screen, colon cancer; type: cell-based, human; details: Homo sapiens, HT-29; for GI50: HT29, five dose 0.01–100 µM, 48 h, read-out: GI50
A549/ATCC = test: NCI-60 SRB screen, non-small cell lung cancer; type: cell-based, human; details: Homo sapiens; A549/ATCC; five dose 0.01–100 µM, 48 h; read-out: GI50
PC-3 = test: NCI-60 SRB screen, prostate cancer; type: cell-based, human; details: Homo sapiens; PC-3; five dose 0.01–100 µM, 48 h; read-out: GI50
[1] = system: MCF-7 human breast cancer cells; test: cells; details: MCF7, MCF-7
Description: All biochemical assays were performed in triplicate for the determination of mean values reported. The human breast carcinoma cell line MCF-7 was purchased from the European Collection of Animal Cell Cultures (ECACC) and was cultured in Eagle’s minimum essential medium with 10% fetal bovine serum, 2 mM L-glutamine and 100 μg/mL penicillin/streptomycin. The medium was supplemented with 1% non-essential amino acids. […] All cells were sub-cultured 3 times/week by trypsinisation.
Cells were seeded at a density of 5 × 10^3 cells/well (MCF-7) in triplicate in 96-well plates. […] Cell proliferation for MCF-7 and MDA-MB-231 cells was analysed using the Alamar Blue assay (Invitrogen Corp.). […] Experiments were performed in triplicate on at least three separate occasions.

ACHN = test: NCI-60 SRB screen, renal cancer; type: cell-based, human; details: Homo sapiens, five dose 0.01–100 µM, 48 h, read-out: GI50
OVCAR-8 = test: NCI-60 SRB screen, ovarian cancer; type: cell-based, human; details: Homo sapiens; OVCAR-8; five dose 0.01–100 µM, 48 h; read-out: GI50
IGROV1 = test: NCI-60 SRB screen, ovarian cancer; type: cell-based, human; details: Homo sapiens, IGROV-1; IGROV1; five dose 0.01–100 µM, 48 h; read-out: GI50
[2] = system: MDA-MB-231 human breast cancer cells; test: Alamar Blue cell viability (antiproliferative) assay; type: cell-based; details: read-out: IC50
BT-549 = test: NCI-60 SRB screen, breast cancer; type: cell-based, human; details: Homo sapiens; BT-549; five dose 0.01–100 µM, 48 h; read-out: GI50
A498 = test: NCI-60 SRB screen, renal cancer; type: cell-based, human; details: Homo sapiens; A498; five dose 0.01–100 µM, 48 h; read-out: GI50
KM12 = test: NCI-60 SRB screen, colon cancer; type: cell-based, human; details: Homo sapiens; KM12; five dose 0.01–100 µM, 48 h; read-out: GI50

SMILES	GI50 (SNB-75) [nM]	GI50 (SK-MEL-5) [nM]	GI50 (HOP-92) [nM]	GI50 (CAKI-1) [nM]	GI50 (MDA-MB-468) [nM]	GI50 (HCT-116) [nM]	GI50 (786-0) [nM]	GI50 (OVCAR-3) [nM]	GI50 (HOP-62) [nM]	GI50 (SW-620) [nM]	GI50 (M14) [nM]	GI50 (NCI-H23) [nM]	GI50 (OVCAR-4) [nM]	GI50 (UO-31) [nM]	GI50 (EKVX) [nM]	GI50 (UACC-62) [nM]	GI50 (RXF 393) [nM]	GI50 (COLO 205) [nM]	GI50 (SK-MEL-2) [nM]	GI50 (HCT-15) [nM]	also measured
C=C(C)C1C(=O)N(c2cc(OC)c(OC)c(OC)c2)C1c1ccc(OC)cc1 (stereo not drawn) [9h, 4-(4-Methoxyphenyl)-1-(3,4,5-trimethoxyphenyl)-3-(prop-1-en-2-yl)azetidin-2-one]	38	24.3	71.9	83.1	25	31.7	44.2	25.4	57.6	42.4	221	23.7	39.1	505	81.3	39.2	37.5	27.1	18600	40.6	GI50 (MCF-7): 36.8 nM; GI50 (LOX IMVI): 38.8 nM; GI50 (HT29): 35.4 nM; GI50 (A549/ATCC): 40.8 nM; GI50 (PC-3): 45.3 nM; IC50 [1]: 33 nM; GI50 (ACHN): 64.3 nM; GI50 (OVCAR-8): 37.3 nM; GI50 (IGROV1): 49.9 nM; IC50 [2]: 31.3 nM; GI50 (BT-549): 32.9 nM; GI50 (A498): 24.3 nM; GI50 (KM12): 34 nM
C=C(C)C1C(=O)N(c2cc(OC)c(OC)c(OC)c2)C1c1ccc(OC)c(N)c1 (stereo not drawn) [9s, 4-(3-Amino-4-methoxyphenyl)-1-(3,4,5-trimethoxyphenyl)-3-(prop-1-en-2-yl)azetidin-2-one]	60.1	23.2	43.7	49.1	21.6	30.2	37.6	22.8	52.1	39.4	24.8	25.8	40.7	74	587	40.6	39.6	19.7	67.6	41.6	GI50 (MCF-7): 32.4 nM; GI50 (LOX IMVI): 32.5 nM; GI50 (HT29): 33.7 nM; IC50 (HT29; text of the NCI screening section, read-out: IC50): 34 nM; GI50 (A549/ATCC): 41.5 nM; GI50 (PC-3): 37.9 nM; IC50 [1]: 33 nM; GI50 (ACHN): 62 nM; GI50 (OVCAR-8): 30.8 nM; GI50 (IGROV1): 35.7 nM; GI50 (BT-549): 37.8 nM; GI50 (A498): 23.4 nM; GI50 (KM12): 23.1 nM
